Data on 35 compounds can be found in patent US11858922B2, “Sulfonylureas and related compounds and use of same” (The University of Queensland, priority 2016, dated 2024).

What is called IC50 is the concentration at which inhibition is half-maximal. Lower therefore signals inhibition by little substance. For orientation: half-life means the time needed for the level to fall by half in the phase considered.

The structures appear in SMILES notation. Some results are limits rather than exact numbers.

T1 sequence (Q96P20 whole entry): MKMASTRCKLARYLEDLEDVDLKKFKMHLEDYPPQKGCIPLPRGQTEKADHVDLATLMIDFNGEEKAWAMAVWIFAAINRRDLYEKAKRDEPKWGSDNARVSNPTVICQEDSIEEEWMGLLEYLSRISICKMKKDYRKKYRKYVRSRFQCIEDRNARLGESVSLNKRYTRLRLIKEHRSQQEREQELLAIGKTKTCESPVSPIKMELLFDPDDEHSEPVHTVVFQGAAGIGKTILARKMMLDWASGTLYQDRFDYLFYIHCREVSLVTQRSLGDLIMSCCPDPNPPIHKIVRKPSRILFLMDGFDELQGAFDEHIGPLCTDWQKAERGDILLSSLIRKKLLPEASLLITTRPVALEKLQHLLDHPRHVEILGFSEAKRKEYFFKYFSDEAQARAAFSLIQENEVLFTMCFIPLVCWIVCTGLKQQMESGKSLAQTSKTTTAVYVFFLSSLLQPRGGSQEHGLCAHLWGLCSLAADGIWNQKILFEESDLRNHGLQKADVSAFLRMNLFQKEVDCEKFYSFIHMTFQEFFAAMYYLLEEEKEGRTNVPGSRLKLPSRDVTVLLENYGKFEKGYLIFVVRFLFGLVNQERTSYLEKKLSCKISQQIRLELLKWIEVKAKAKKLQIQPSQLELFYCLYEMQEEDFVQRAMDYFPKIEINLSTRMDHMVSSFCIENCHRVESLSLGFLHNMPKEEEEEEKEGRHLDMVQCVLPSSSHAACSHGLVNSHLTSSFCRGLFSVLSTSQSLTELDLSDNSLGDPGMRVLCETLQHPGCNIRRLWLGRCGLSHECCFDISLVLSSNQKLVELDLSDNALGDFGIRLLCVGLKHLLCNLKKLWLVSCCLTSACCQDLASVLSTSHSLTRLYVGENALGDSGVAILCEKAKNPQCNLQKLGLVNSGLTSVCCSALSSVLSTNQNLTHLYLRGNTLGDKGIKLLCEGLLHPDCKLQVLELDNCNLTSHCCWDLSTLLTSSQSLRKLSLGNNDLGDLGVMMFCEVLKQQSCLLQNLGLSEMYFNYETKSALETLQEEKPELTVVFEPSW

One data set addresses T1, NLRP3 (Homo sapiens, UniProt Q96P20).
T1 construct: Seed THP-1 cells (25,000 cells/well) containing 1.0 μg/ml LPS; host or cells: THP-1 cells
The data set is described as follows: THP-1 cells pyroptosis assay. In kind it is cell-based. The settings on record: LPS 1.0 μg/ml, nigericin 5 μM, resazurin readout. The text has this:
It is well established that the activation of NLRP3 leads to cell pyroptosis and this feature plays an important part in the manifestation of the clinical disease (Yan-gang Liu et al., Cell Death & Disease, 2017, 8(2), e2579; Alexander Wree et al., Hepatology, 2014, 59(3), 898-910; Alex Baldwin et al., Journal of Medicinal Chemistry, 2016, 59(5), 1691-1710; Ema Ozaki et al., Journal of Inflammation Research, 2015, 8, 15-27; Zhen Xie & Gang Zhao, Neuroimmunology Neuroinflammation, 2014, 1(2), 60-65; Mattia Cocco et al., Journal of Medicinal Chemistry, 2014, 57(24), 10366-10382; T. Satoh et al., Cell Death & Disease, 2013, 4, e644). Therefore, it is anticipated that inhibitors of NLRP3 will block pyroptosis, as well as the release of pro-inflammatory cytokines (e.g. IL-1β) from the cell.
THP-1 cells (ATCC #TIB-202) were grown in RPMI containing L-glutamine (Gibco #11835) supplemented with 1 mM sodium pyruvate (Sigma #S8636) and penicillin (100 units/ml)/streptomycin (0.1 mg/ml) (Sigma #P4333) in 10% Fetal Bovine Serum (FBS) (Sigma #F0804). The cells were routinely passaged and grown to confluency (˜10^6 cells/ml). On the day of the experiment, THP-1 cells were harvested and resuspended into RPMI medium (without FBS). The cells were then counted and viability (>90%) checked by Trypan blue (Sigma #T8154). Appropriate dilutions were made to give a concentration of 625,000 cells/ml. To this diluted cell solution was added LPS (Sigma #L4524) to give a 1 μg/ml Final Assay Concentration (FAC). 40 μl of the final preparation was aliquoted into each well of a 96-well plate. The plate thus prepared was used for compound screening.
The following method step-by-step assay was followed for compound screening. • 1. Seed THP-1 cells (25,000 cells/well) containing 1.0 μg/ml LPS in 40 μl of RPMI medium (without FBS) in 96-well, black walled, clear bottom cell culture plates coated with poly-D-lysine (VWR #734-0317) • 2. Add 5 μl compound (8 points half-log dilution, with 10 μM top dose) or vehicle (DMSO 0.1% FAC) to the appropriate wells • 3. Incubate for 3 hrs at 37° C. in 5% CO2 • 4. Add 5 μl nigericin (Sigma #N7143) (FAC 5 μM) to all wells • 5. Incubate for 1 hr at 37° C. and 5% CO2 • 6. At the end of the incubation period, spin plates at 300×g for 3 mins and remove supernatant • 7. Then add 50 μl of resazurin (Sigma #R7017) (FAC 100 μM resazurin in RPMI medium without FBS) and incubate plates for a further 1-1.5 h at 37° C. and 5% CO2 • 8. Plates were read in an Envision reader at Ex 560 nm and Em 590 nm • 9. IC50 data is fitted to a non-linear regression equation (log inhibitor vs response-variable slope 4-parameters) 96-Well Plate Map
Background: Alamar Blue is a resazurin reagent that responds to reducing activity.
In turn, `O=C(Nc1c2c(cc3c1CCC3)CCC2)NS(=O)(=O)NCc1cccs1` [Example 23] registered an IC50 below 10 µM.

For the compound `O=C(Nc1c2c(cc3c1CCC3)CCC2)NS(=O)(=O)N(Cc1ccccc1)Cc1nccs1` [Example 19], the IC50 was below 1 µM.

Take `O=C(Nc1c2c(cc3c1CCC3)CCC2)NS(=O)(=O)NCCCc1ccccc1` [Example 25]: the IC50 was below 10 µM.

For the compound `COc1cc(C)c(NS(=O)(=O)NC(=O)Nc2c3c(cc4c2CCC4)CCC3)cn1` [Example 35], the IC50 is below 1 µM.

Regarding `Cc1ccccc1OCCNS(=O)(=O)NC(=O)Nc1c2c(cc3c1CCC3)CCC2` [Example 26], the IC50 was below 10 µM.

`O=C(Nc1c2c(cc3c1CCC3)CCC2)NS(=O)(=O)NCCOc1ccccc1Cl` [Example 5] had an IC50 below 10 µM.

`O=C(Nc1c2c(cc3c1CCC3)CCC2)NS(=O)(=O)NCCc1nccs1` [Example 15] gave an IC50 below 10 µM.

Regarding `O=C(Nc1c2c(cc3c1CCC3)CCC2)NS(=O)(=O)NCCN1CCc2ccccc21` [Example 40], the IC50 was below 10 µM.

In the case of `O=C(Nc1c2c(cc3c1CCC3)CCC2)NS(=O)(=O)NCCc1nc(-c2cccnc2)no1` [Example 21], the IC50 is below 10 µM.

In turn, `CS(=O)(=O)c1cccc(CNS(=O)(=O)NC(=O)Nc2c3c(cc4c2CCC4)CCC3)c1` [Example 7] showed an IC50 below 10 µM.

As to `Cc1nccn1-c1ccc(NS(=O)(=O)NC(=O)Nc2c3c(cc4c2CCC4)CCC3)cc1` [Example 27], the IC50 was below 10 µM.

For `O=C(Nc1c2c(cc3c1CCC3)CCC2)NS(=O)(=O)NCc1ccncc1` [Example 30], the IC50 was below 50 µM.

In turn, `Cn1ncc2ccc(NS(=O)(=O)NC(=O)Nc3c4c(cc5c3CCC5)CCC4)cc21` [Example 42, 1-(1,2,3,5,6,7-Hexahydro-s-indacen-4-yl)-3-[(1-methyl-1H-indazol-6-yl)sulfamoyl]urea] showed an IC50 below 1 µM.

`CCN(C)C1(CNS(=O)(=O)NC(=O)Nc2c3c(cc4c2CCC4)CCC3)CCCCC1` [Example 12]: the IC50 was below 10 µM.

Compound `O=C(Nc1c2c(cc3c1CCC3)CCC2)NS(=O)(=O)NCc1c(F)cc(F)cc1F` [Example 11] gave an IC50 below 10 µM.

`CN(Cc1ccc(F)cc1)S(=O)(=O)NC(=O)Nc1c2c(cc3c1CCC3)CCC2` [Example 32] displayed an IC50 below 10 µM.

As for `Cc1ccnc(C)c1NS(=O)(=O)NC(=O)Nc1c2c(cc3c1CCC3)CCC2` [Example 39], the half-maximal inhibitory concentration (IC50) is below 10 µM.

In turn, `CN(c1ccccc1)S(=O)(=O)NC(=O)Nc1c2c(cc3c1CCC3)CCC2` [Example 31] came in with a 50% inhibitory concentration (IC50) below 10 µM.

`O=C(Nc1c2c(cc3c1CCC3)CCC2)NS(=O)(=O)Nc1cccc2c1CCC2` [Example 37] yielded an IC50 below 10 µM.

`O=C(Nc1c2c(cc3c1CCC3)CCC2)NS(=O)(=O)N1CCN(CCc2cccs2)CC1` [Example 13]: the IC50 was below 10 µM.

As to `Cc1ccc(NS(=O)(=O)NC(=O)Nc2c3c(cc4c2CCC4)CCC3)cc1C#N` [Example 33], the IC50 was below 10 µM.

Regarding `CC(=O)c1cc2c(cc1NS(=O)(=O)NC(=O)Nc1c3c(cc4c1CCC4)CCC3)OCO2` [Example 36], the IC50 is below 10 µM.

On to `CN(C)CCN(Cc1ccsc1)S(=O)(=O)NC(=O)Nc1c2c(cc3c1CCC3)CCC2` [Example 18], for which the IC50 is below 10 µM.

With `O=C(Nc1c2c(cc3c1CCC3)CCC2)NS(=O)(=O)N1CCc2ccccc21` [Example 28], the half-inhibitory concentration (IC50) was below 10 µM.

`Cc1ccc(OCCNS(=O)(=O)NC(=O)Nc2c3c(cc4c2CCC4)CCC3)cc1` [Example 24] showed an IC50 below 10 µM.

On to `O=C(Nc1c2c(cc3c1CCC3)CCC2)NS(=O)(=O)NCc1ccco1` [Example 14], for which the IC50 is below 10 µM.

On to `O=C(Nc1c2c(cc3c1CCC3)CCC2)NS(=O)(=O)NCc1ccc(Cl)cc1F` [Example 6], for which the IC50 was below 10 µM.

With `CN(Cc1csc(-c2ccccc2)n1)S(=O)(=O)NC(=O)Nc1c2c(cc3c1CCC3)CCC2` [Example 20], the IC50 is below 10 µM.

Take `CCn1c(=O)n(CC)c2cc(NS(=O)(=O)NC(=O)Nc3c4c(cc5c3CCC5)CCC4)c(C)cc21` [Example 34]: the IC50 is below 10 µM.

Consider `O=C(Nc1c2c(cc3c1CCC3)CCC2)NS(=O)(=O)N(CCN1CCOCC1)Cc1ccco1` [Example 17], for which the IC50 was below 50 µM.

For the compound `CN(Cc1ccncc1)S(=O)(=O)NC(=O)Nc1c2c(cc3c1CCC3)CCC2` [Example 29], the IC50 is below 10 µM.

`O=C(Nc1c2c(cc3c1CCC3)CCC2)NS(=O)(=O)Nc1ccc2[nH]ccc2c1` [Example 43, 3-(1,2,3,5,6,7-Hexahydro-s-indacen-4-yl)-1-[(1H-indol-5-yl)sulfamoyl]urea] registered an IC50 below 1 µM.

Target in the next data set: not listed separately
The data set is described as follows: Isothermal titration calorimetry (ITC), copper complexation of MCC950. The following applies: ITC, CuCl2 titrated into 0.4 mM MCC950Na in water, 25° C. In kind it is binding. The procedure:
Complex formation between the sodium form of MCC950 and copper chloride was tested and detected by using isothermal titration calorimetry (ITC). MCC950 (also known as CRID3) is a sulphonylurea having the formula: […]
An autoITC 200 (GE life sciences) was used to measure the change in heat induced by Cu^2+-MCC950 interactions and data analysed using the MicroCal Origin version 7.0 software package adapted for auto-ITC data analysis.
Copper chloride (5 or 2.5 mM of CuCl2) dissolved in water (miliQ water; Elga) was titrated into a cell containing 0.4 mM MCC950Na also dissolved in water. The titration consisted of 19×2 μL injections at 25° C. As a control EDTA was used, in free acid form or as a sodium di-salt, at a concentration of 0.4 mM. Experiments were replicated three times and results were averaged. Thermograms and binding isotherms were used to determine the enthalpy (ΔH), binding constants (K), stoichiometry (N), and entropy (TΔS) using a single-site binding model. The change in standard Gibbs free energy (ΔG) was calculated using the Gibbs-Helmholz thermodynamic equation: ΔG=−RTInK, where R is the ideal gas constant (1.985 cal mol^−1K^−1) and T is the temperature (298 K).
For the compound `CC(C)(O)c1coc(S(=O)(=O)NC(=O)Nc2c3c(cc4c2CCC4)CCC3)c1` [MCC950], the “K (binding constant)” value was 5.69 ± 0.3 10^4 M^−1.

Still in this data set, the particulars now being: MCC950 sodium salt.
On to `CC(C)(O)c1coc(S(=O)(=O)NC(=O)Nc2c3c(cc4c2CCC4)CCC3)c1` [MCC950], for which the “binding to Cu^2+ (ITC, FIG. 1)” value is listed as “significant binding”.

Tested on in the next data set: not given
Experiment: not given
The settings on record: mouse; cited from earlier work.
`CC(C)(O)c1coc(S(=O)(=O)NC(=O)Nc2c3c(cc4c2CCC4)CCC3)c1` [MCC950]: the half-life is 3.2 h.

In another data set the target is T2, NLRP3 inflammasome (Homo sapiens, UniProt Q96P20).
T2 construct: endogenous in cells; host or cells: HMDM (human monocyte-derived macrophages from buffy coat blood)
T2 sequence (Q96P20 whole entry): as above
The data set is described as follows: Inhibition of IL-1β release, cell based assay using HMDM (NLRP3 inflammasome activation assay).
Conditions: not given
The procedure: The following assays can be used to determine inhibitory activity of test compounds on the NLRP3 inflammasome using common stimuli such as adenosine triphosphate, nigericin, LeuLeu-OMe or monosodium urate crystals (MSU).
To generate HMDM (Human Monocyte Derived Macrophages), human monocytes are isolated from buffy coat blood using Ficoll-Plaque Plus (GE Healthcare) and density centrifugation. CD14^+ cell selection is performed using MACS magnetic beads (Miltenyl Biotec). Isolated CD14^+ monocytes are differentiated in culture for 7 days with 10 ng/ml human CSF-1 (Miltenyl Biotec) in Iscove's modified Dulbecco's medium (IMDM) containing L-glutamine supplemented with 10% FBS and 1% penicillin/streptomycin (Life Technologies) as described by Croker et al 2013 Immunol Cell Biol 91:625. Stably transfected ASC-cerulean macrophages as described by Hett et al. (Nat. Chem. Biol., 9, 398-405, 2013) are cultured in DMEM supplemented with 10% FCS and 1% P/S.
HMDM are seeded at 1×10^5/ml. […]
For ELISA and cell death assays cells are seeded in 96 well plates. Supernatants are removed and analysed using ELISA kits according to the manufacturer's instructions (DuoSet® R&D Systems, ReadySetGo!® eBioscience, BD OptEIA™, or Perkin Elmer AlphaLISA®). Cell death is assessed by measurement of LDH release relative to a 100% cell lysis control using the CytoTox96® non-radioactive cytotoxicity assay (Promega).
`CN1CCN(S(=O)(=O)NC(=O)Nc2c3c(cc4c2CCC4)CCC3)CC1` [Example 2, N-((1,2,3,5,6,7-hexahydro-s-indacen-4-yl)carbamoyl)-4-methylpiperazine-1-sulfonamide] displayed an IC50 below 1 µM.

Turning to `CC(C)n1ccc(S(=O)(=O)NC(=O)Nn2c3ccccc3c3ccccc32)n1` [Example 4, N-((9H-carbazol-9-yl)carbamoyl)-1-isopropyl-1H-pyrazole-3-sulfonamide], the IC50 is below 10 µM.

Tested on in a further data set: not listed separately
Nature of the data set: Isothermal titration calorimetry (ITC), Ca^2+ binding. The following applies: MCC950 sodium salt. Background: ITC needs no label: the signal is the heat of the interaction.
Take `CC(C)(O)c1coc(S(=O)(=O)NC(=O)Nc2c3c(cc4c2CCC4)CCC3)c1` [MCC950]: the “binding to Ca^2+ (ITC, FIG. 1)” value is given as “no binding”.
